Measurements as given in PubChem BioAssay (NCI).
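Test compounds were applied to cells in 96-well plates for 48 hours at 5 doses. TGI: total growth inhibition.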

Assays:
Assay in all cases: NCI tumour cell line growth inhibition, 48 h
[1] = test system: HCC-2998 colon
[2] = test system: HCT-15 colon
[3] = test system: SK-MEL-5 melanoma
[4] = test system: SK-OV-3 ovarian
[5] = test system: MDA-MB-435
[6] = test system: SF-268 CNS
[7] = test system: T-47D breast

CC1(C)N(OC2CCCCO2)C(c2ccccc2)C(c2ccccc2)=[N+]1[O-] (stereo unspecified)
TGI [1]: > 100 µM | TGI [2]: > 100 µM | TGI [3]: > 100 µM | TGI [4]: > 100 µM

Cn1c(=O)oc2cc(C(=S)N3CCC(Cc4ccccc4)CC3)ccc21
TGI [2]: > 100 µM | TGI [5]: > 100 µM | TGI [6]: > 100 µM | TGI [3]: > 100 µM | TGI [4]: > 100 µM

O=C(O)Cn1nnc2c(=O)[nH][nH]c(=O)c21
TGI [1]: > 100 µM | TGI [2]: > 100 µM | TGI [5]: > 100 µM | TGI [3]: > 100 µM

OC(c1ccc(F)cc1)C(F)(F)c1nc(-c2ccccc2)no1 (stereo unspecified)
TGI [2]: 63 µM | TGI [5]: 35.6 µM | TGI [6]: 62.9 µM | TGI [7]: 68.3 µM

Cc1ccc(-c2c(C#N)c(-c3ccc([N+](=O)[O-])cc3)c(C#N)c(=O)n2NS(=O)(=O)c2ccc(C)cc2)cc1
TGI [1]: > 100 µM | TGI [2]: > 100 µM | TGI [5]: > 100 µM | TGI [6]: > 100 µM | TGI [3]: 48.7 µM | TGI [4]: > 100 µM

c1ccc2c(c1)ccc1ncccc12
TGI [1]: > 100 µM | TGI [2]: > 100 µM | TGI [5]: > 100 µM | TGI [6]: > 100 µM | TGI [3]: > 100 µM | TGI [7]: > 100 µM

CC(=O)O[C@H]1C(=O)[C@@]2(C)[C@H]([C@H](OC(=O)c3ccccc3)[C@]3(O)C[C@H](OC(=O)[C@H](O)[C@@H](NC(=O)c4ccccc4)C4CCCCC4)C(C)=C1C3(C)C)[C@]1(OC(C)=O)CO[C@@H]1C[C@@H]2O
TGI [1]: 16.4 µM | TGI [2]: > 51.1 µM | TGI [6]: > 100 µM | TGI [3]: 14.9 µM | TGI [7]: 93.7 µM

COc1ccc(C(=O)/C=C2\c3ccccc3C(=O)N2C)cc1
TGI [2]: > 100 µM | TGI [5]: > 100 µM | TGI [6]: > 100 µM | TGI [3]: > 100 µM | TGI [4]: > 100 µM | TGI [7]: > 100 µM

CC(=O)c1ccc(N2CCN(c3c(O)c4c(c(O)c3Cl)C(=O)C=CC4=O)CC2)cc1
TGI [1]: 37.4 µM | TGI [2]: > 100 µM | TGI [6]: 8.12 µM | TGI [3]: 20.3 µM | TGI [7]: 10.4 µM

NCCCCC(N)C(=O)N1CCN(c2nc(N3CCCC3)c3nc(Cl)c(NCc4ccccc4)nc3n2)CC1 (stereo unspecified)
TGI [1]: 34.7 µM | TGI [2]: 35.2 µM | TGI [5]: 46.6 µM | TGI [6]: 45.2 µM | TGI [3]: 34.1 µM | TGI [4]: 37.4 µM

COc1ccc(OC)c(C2CCCc3c2cnc2nc(N)nc(N)c32)c1 (stereo unspecified)
TGI [2]: > 100 µM | TGI [5]: > 100 µM | TGI [6]: > 100 µM | TGI [3]: > 100 µM | TGI [4]: > 100 µM | TGI [7]: > 100 µM

COC(=O)C1=C(C(=O)OC)SC(=C2c3ccsc3-c3sccc32)S1
TGI [1]: > 100 µM | TGI [2]: > 100 µM | TGI [5]: > 100 µM | TGI [6]: 57.3 µM | TGI [3]: > 100 µM | TGI [4]: 49.3 µM

CCN(CC)CCCC(C)NC(=O)c1cc(-c2nccn2C)nc2ccc(C)cc12 (stereo unspecified)
TGI [1]: > 100 µM | TGI [2]: > 100 µM | TGI [5]: > 100 µM | TGI [6]: > 100 µM | TGI [3]: > 100 µM | TGI [7]: > 100 µM

O=C1C=C(c2c(-c3ccccc3)[nH]c3ccccc23)C(=O)N1c1ccccc1
TGI [1]: 20.8 µM | TGI [2]: 23.8 µM | TGI [5]: 24.6 µM | TGI [6]: 21.5 µM | TGI [3]: 20.9 µM | TGI [4]: > 100 µM

Cc1nc2c(O)cccc2c(=O)[nH]1
TGI [1]: > 1000 µM | TGI [2]: > 1000 µM | TGI [5]: > 1000 µM | TGI [6]: > 1000 µM | TGI [4]: > 1000 µM

Cn1c(N(CCO)CCO)cnc1[N+](=O)[O-]
TGI [2]: > 100 µM | TGI [5]: > 100 µM | TGI [6]: > 100 µM | TGI [3]: > 100 µM | TGI [4]: > 100 µM | TGI [7]: > 100 µM

COc1cc2c(c(N)c1OC)C(=O)/C(=C/c1cc(C)c(O)c(C)c1)C2
TGI [1]: > 100 µM | TGI [2]: > 100 µM | TGI [6]: > 100 µM | TGI [3]: > 32.7 µM | TGI [4]: > 100 µM | TGI [7]: > 100 µM

CC1=NN(c2nc(N)nc(C(C)Sc3cc(Cl)c(C)cc3S(N)(=O)=O)n2)C(C)(C)C1 (stereo unspecified)
TGI [1]: > 10 µM | TGI [2]: > 10 µM | TGI [6]: > 10 µM | TGI [3]: > 10 µM | TGI [4]: > 10 µM | TGI [7]: > 10 µM

COC(=O)c1ccccc1/C=C1\Cc2cc3c(cc2C1=O)CCC3
TGI [1]: > 100 µM | TGI [2]: > 100 µM | TGI [6]: > 100 µM | TGI [3]: > 100 µM | TGI [4]: > 100 µM | TGI [7]: > 100 µM

CSc1c(CC(=O)O)n(Cc2ccccc2)c2ccccc12
TGI [2]: > 100 µM | TGI [5]: > 100 µM | TGI [6]: > 100 µM | TGI [3]: > 100 µM | TGI [4]: > 100 µM | TGI [7]: > 100 µM

O=c1c2c(sc3ccccc13)NCN(CCc1ccccc1)C2
TGI [1]: 56.9 µM | TGI [5]: > 100 µM | TGI [3]: 29 µM | TGI [4]: > 100 µM

Cn1c(=O)cc(NNc2ccc(Br)cc2)[nH]c1=O
TGI [1]: 13.9 µM | TGI [2]: 19.6 µM | TGI [5]: 25.3 µM | TGI [3]: 30.2 µM

O=c1n(CCCN2CCN(c3cccc(Cl)c3)CC2)nc2n1-c1ccc3ccccc3c1SC2
TGI [2]: > 100 µM | TGI [5]: > 100 µM | TGI [3]: > 100 µM | TGI [4]: > 100 µM

Nc1ncnc2c1ncn2[C@@H]1C[C@H]1CO
TGI [1]: > 100 µM | TGI [2]: > 100 µM | TGI [7]: > 100 µM

COc1ccc(/C=C/C(=O)c2nc3ccccc3[nH]2)cc1
TGI [2]: > 40.5 µM | TGI [5]: > 100 µM | TGI [6]: > 64.5 µM | TGI [3]: 31.8 µM | TGI [4]: 86.1 µM | TGI [7]: 53.7 µM
